Results: paper PMC10603063, “A quantitative method for determination of colistin E2 methanesulphonate in human plasma by ^15N-labeled colistin E2” (Scientific Reports, 2023)
Like-named read-outs stand apart in the source and are kept apart here. Peptide text beside a SMILES is read from it.

What was measured:
[1] = tested on: Bordetella bronchitica ATCC4617; assay: Cylinder-plate potency method of the United States pharmacopoeia; format: cell-based
Description: In addition to at least 30 minor polymyxins with very similar physiochemical properties, colistin consists of colistin E1 and colistin E2 (Fig. 1)[6]. According to European Pharmacopoeia records, the components with the same molecular weight as colistin E1 are colistin E1-7MOA and E1-I, and colistin E2 is colistin E3, E2-I, and E1-Nva. In short, except for the principal components colistin E1 and E2, other components with similar physicochemical properties account for nearly 20% of colistin. These components could not be separated from colistin E1/E2 using mobile phases containing formic acid but were identified as a single peak of polymyxin E1/E2 by HPLC. This neglected problem actually brings some interferes with single component or colistin quantification. In the process of developing CMS, we successfully purified single components of colistin E1 and E2 with a purity of more than 99% by preparative HPLC using a specific salt mobile phase.

[2] = Description: (§1) The stability of colistin E2 was evaluated at two levels (low and high QCs).
The hydrolysis of CMS E2 is temperature dependent; the lower the temperature, the slower the hydrolysis rate. The samples were processed in ice water. Therefore, we studied their stability in ice-water. In the presence of CMS E2 (the spiked concentration was 50 times the concentration of colistin, which can cover the clinical samples), the stability of colistin E2 was also evaluated under the following conditions: […], four freeze–thaw cycles, storage at − 20 ℃ and − 80 ℃ (at least 98 days), and storage of extracts at 4 ℃ in an auto-sampler for 22.5 h.

[3] = for long-term storage stability: colistin E2-spiked samples, at least 93 days
Description: (§2) Referring to Zhou et al.[10], for each plasma sample, 100 µL of 5% ammonia was added to a mixture containing 100 µL of CMS E2 calibration plasma standards or QCs and 20 µL of 15 µg/ml IS solution. After vortexing, the mixtures were loaded onto WCX SPE plates. Before loading the sample, the WCX SPE plates were preconditioned with 1 ml methanol followed by 1 mL water to activate the extraction. The plate was sequentially washed with 1 mL of water, 1 mL of methanol, 1 mL of 70% ACN with 2% ammonia, and 1 ml 0.5% FA. Subsequently, 300 µL of 70% ACN with 6% FA was used to elute the analytes twice. Total eluents (600 µL) were collected with an SPE 96-Deep Square Well collection plate, mixed in a 96-well plate mixer, and analyzed by UHPLC-MS/MS.
as §1
(§3) The hydrolysis of CMS E2 is temperature dependent; the lower the temperature, the slower the hydrolysis rate. The samples were processed in ice water. Therefore, we studied their stability in ice-water. In the presence of CMS E2 (the spiked concentration was 50 times the concentration of colistin, which can cover the clinical samples), the stability of colistin E2 was also evaluated under the following conditions: on the bench top in ice water for 21 h, four freeze–thaw cycles, storage at − 20 ℃ and − 80 ℃ (at least 98 days), and storage of extracts at 4 ℃ in an auto-sampler for 22.5 h.
The method was used for the stability study, and all the following medicinal solutions and plasma samples were prepared and used in an ice water bath and stored at -20 °C after use.
2.6.4 Preparation of plasma quality control sample QC_mix for CMS E2/Colistin E2

[4] = stock solution in methanol: water (1: 1)
Description: as §1
The standard curve stock solution and the quality control stock solution for colistin E2 need to be prepared from different weighing. All solutions were kept at -20°C.
The colistin E2 reference was accurately weighed and dissolved with an appropriate amount of methanol: water (1: 1) to prepare a stock solution SS-A with a concentration of 3 mg/mL.

[5] = remark: listed apart in the source
Description: as §2, §1, §3

Molecule | antibacterial activity (comparison of purified single components) ([1]; single components purified to more than 99% by preparative HPLC) | percentage of change in blood spiked with CMS E2 ([2]; blood spiked with CMS E2, ice water for 60 min) | stability in fresh whole blood ([2]; fresh whole blood (EDTA-K2), bench top in ice water for 66 min, without CMS E2) | benchtop stability ([3]; colistin E2-spiked plasma, low and high QCs, without CMS E2, bench top in ice water for 24 h) | freeze–thaw stability ([3]; colistin E2-spiked plasma, low and high QCs, without CMS E2, four freeze–thaw cycles) | long-term storage stability ([3]; low and high QCs, −20 ℃) | long-term storage stability ([3]; low and high QCs, −80 ℃) | %Change, benchtop stability ([3]; human plasma (EDTA-K2) spiked with CMS E2 (50 times colistin concentration; QC_mix 24/0.48 µg/mL), 21 h in ice water, UHPLC-MS/MS) | %Change, long-term stability ([3]; human plasma spiked with CMS E2, 41 d in freezer (−20℃), UHPLC-MS/MS) | stability of stock solutions ([4]; stored at ambient for 21 h) | stability of stock solutions, long-term ([4]; −20 ℃ for at least 97 days) | duration of stability in the auto-sampler ([5]; extracts after WCX SPE removal of CMS E2, auto-sampler (4℃)) | stability of extracts ([5]; extracts at 4 ℃ in an auto-sampler for 65.5 h, without CMS E2) | %Change, processed sample stability ([5]; sample extracts of matrix spiked with CMS E2, 22.5 h in an auto-sampler (4℃), UHPLC-MS/MS) | potency ([1]; cylinder-plate method, United States pharmacopoeia, test bacteria Bordetella bronchitica ATCC4617)
CC(C)CCCCC(=O)N[C@@H](CCN)C(=O)N[C@H](C(=O)N[C@@H](CCN)C(=O)N[C@H]1CCNC(=O)[C@H]([C@@H](C)O)NC(=O)[C@H](CCN)NC(=O)[C@H](CCN)NC(=O)[C@H](CC(C)C)NC(=O)[C@@H](CC(C)C)NC(=O)[C@H](CCN)NC1=O)[C@@H](C)O [colistin E2] (HELM PEPTIDE1{[CC(C)CCCCC(=O)[*:2]].[Dab].T.[Dab].[Dab].[Dab].[dL].L.[Dab].[Dab].T}$PEPTIDE1,PEPTIDE1,5:R3-11:R2$$$V2.0) | higher than that of E1 | less than 15% | no degradation | no degradation | no degradation | no degradation | no degradation | 2.0% | 1.3% | no degradation | no degradation | at least 22.5 h | no degradation | 4.4% | 
colistin E2 methanesulphonate [CMS E2] |  |  |  |  |  |  |  |  |  |  |  |  |  |  | 611 µg/mg
